One may read the IC50 as the concentration that gives 50% inhibition.

This assay deals with Hedgehog signaling pathway. As to the kind of experiment: Gli-Luc luciferase reporter gene assay in C3H10T1/2/Gli-Luc cells under Shh-N stimulation. Type of assay: cell-based. To be noted: Mus musculus, C3H 10T1/2, 24 h, luciferase RLU, read-out: biological activity: IC50 of the inhibitory activities of compounds on the hedgehog pathway. An excerpt:
The luciferase (Gli-Luc) reporter gene with Gli response element was transfected into C3H10T1/2 cells, under Shh-N stimulation conditions, determine the Hedgehog signaling pathway inhibitors through the detection of gene expression in cell activity report. In this study, we evaluated the inhibitory effects of compounds on Hedgehog signaling pathway in the IC50 value of the compound as an index.
Cell lines: C3H10T1/2/Gli-Luc stable cell line • C3H10T1/2/Gli-Luc Cell culture medium (DMEM/high glucose HyClone, #SH30022.01B; 10% serum Hyclone, #SV30087; 0.4% Hygromycin B Roche, #13398200) • 0.25% Trypsin-EDTA (Gibco, #25200)
Shh-N, HEK293/SHH-N stable cell culture supernatant
Inoculate the logarithmic growth phase of C3H10T1/2/Gli-Luc cells into a 96-well culture plate with 20000 cells per well, cells were cultured in a 37° C., 5% CO2 incubator overnight. The next day, the compounds were diluted in the following ways: the positive compound GDC0449 (1 mM) and the compounds (1 mM) to be measured were serially diluted to 7 concentrations by DMSO according to 1:3 and 1:10 respectively, the eighth is for DMSO control, and then diluted with fresh medium 100 times. The medium of the cells cultured overnight was removed, 80 μL fresh culture medium was added per well, then 20 μL gradiently diluted positive compound and compounds to be measured and 100 μL 30 nM Shh-N containing conditioned medium were added, each concentration repeated 2 wells, at the same time, positive and negative reference well were set (i.e. Shh Ctrl: 80 μL fresh medium+20 μL 1% DMSO containing medium+100 μL 30 nM Shh-N containing conditioned medium; Unstimulated Ctrl: 180 μL fresh medium+20 μL 1% DMSO containing medium), cells were cultured in the incubator for further 24 h.
Intracellular luciferase activity detection: take the cells out of 96-well plate, discard the culture medium, the cells were washed with PBS twice, then each well added with 20 μL lysate (Promega E1531), oscillate pyrolysis at room temperature for 30 min. 5 μL cell lysates were transferred to 384-well plate (Greiner 781074), then each well was added with 25 μL luciferase reaction liquid (Promega E1501), after rapid mixed, immediately placed into the VarioSkan Flash multi-function reading instrument to read the relative light units (RLU) value.
Data analysis: using Prism's GraphPad 5 for data analysis. RLU reading to the logarithmic mapping of compound concentration on behalf of luciferase activity, and then curve fitting using the following equation to give IC50 value, Y (RLU)=minimum+(maximum−minimum)/(1+10^(log of compound concentration−Log IC50)).

Molecules are shown by their SMILES.

Regarding `Cc1cn(-c2ccc(N3C[C@@H](C)O[C@@H](C)C3)cc2)c(=O)c2ccnc(-c3ccc(C#N)s3)c12` [Embodiment 84], the IC50 lay in the range of 1000 to 5000 nM. For `Cc1cn(-c2ccc(N3C[C@@H](C)O[C@@H](C)C3)cc2)c(=O)c2nccc(-c3ccc(C#N)cc3)c12` [Embodiment 85, 4-(7-(4-((2S,6R)-2,6-dimethylmorpholino)phenyl)-5-methyl-8-oxo-7,8-dihydro-1,7-naphthyridin-4-yl)benzonitrile], the IC50 was in the range of 500 to 1000 nM. Then `Cc1cn(-c2ccc(N3C[C@@H](C)O[C@@H](C)C3)cc2)c(=O)c2cncc(-c3ccc(C#N)cc3)c12` [Embodiment 86, 4-(7-(4-((2S,6R)-2,6-dimethylmorpholino)phenyl)-5-methyl-8-oxo-7,8-dihydro-2,7-naphthyridin-4-yl)benzonitrile], with 500 to 1000 nM; and `CC1CN(c2ccc(N3C[C@@H](C)O[C@@H](C)C3)cc2)C(=O)c2cccc(-c3ccc(C#N)cc3)c21` (stereo partly drawn) [Embodiment 87, 4-(2-(4-((2S,6R)-2,6-dimethylmorpholino)phenyl)-4-methyl-1-oxo-1,2,3,4-tetrahydroisoquinolin-5-yl)benzonitrile], with 100 to 500 nM; and `COc1c(-c2ccc(N3C[C@@H](C)O[C@@H](C)C3)cc2)cnc2c(-c3ccc(C#N)cc3)cccc12` [Embodiment 88, 4-(3-(4-((2S,6R)-2,6-dimethylmorpholino)phenyl)-4-methoxyquinolin-8-yl) benzonitrile], with not above 50 nM.

Turning to `COc1c(-c2ccc(N3C[C@@H](C)O[C@@H](C)C3)cc2)cnc2c(-c3ccc(C(F)(F)F)cc3)cccc12` [Embodiment 89, (2R,6S)-4-(4-(4-methoxy-8-(4-(trifluoromethyl)phenyl)quinolin-3-yl)phenyl)-2,6-dimethylmorpholine], the IC50 was not above 50 nM. Take `COc1c(-c2ccc(N3C[C@@H](C)O[C@@H](C)C3)cc2)cnc2c(-c3ccc(OC(F)(F)F)cc3)cccc12` [Embodiment 91]: the IC50 is not above 50 nM. Then `COc1c(-c2ccc(N3C[C@@H](C)O[C@@H](C)C3)cc2)cnc2c(-c3ccc(F)nc3)cccc12` [Embodiment 93], with not above 50 nM; and `COc1c(-c2ccc(N3C[C@@H](C)O[C@@H](C)C3)cc2)cnc2c(-c3ccc(C)nc3)cccc12` [Embodiment 94], with not above 50 nM; and `COc1c(-c2ccc(N3C[C@@H](C)O[C@@H](C)C3)cc2)cnc2c(-c3ccc(Cl)nc3)cccc12` [Embodiment 95], with not above 50 nM. Consider `COc1c(-c2ccc(N3C[C@@H](C)O[C@@H](C)C3)cc2)cnc2c(-c3ccc(S(=O)(=O)N4CCOCC4)cc3)cccc12` [Embodiment 96], for which the IC50 lay in the range of 100 to 500 nM. With `COc1c(-c2ccc(N3C[C@@H](C)O[C@@H](C)C3)cc2)cnc2c(-c3ccncc3)cccc12` [Embodiment 97], the 50% inhibitory concentration (IC50) is 100 to 500 nM. `COc1c(-c2ccc(N3C[C@@H](C)O[C@@H](C)C3)cc2)cnc2c(-c3ccc(Cl)c(Cl)c3)cccc12` [Embodiment 98]: the IC50 is not above 50 nM. As to `COc1ccc(-c2cccc3c(OC)c(-c4ccc(N5C[C@@H](C)O[C@@H](C)C5)cc4)cnc23)cn1` [Embodiment 100], the half-inhibitory concentration (IC50) is 100 to 500 nM. In the case of `CNC(=O)c1ccc(-c2cccc3c(OC)c(-c4ccc(N5C[C@@H](C)O[C@@H](C)C5)cc4)cnc23)cn1` [Embodiment 101] it was 100 to 500 nM; in that of `COc1c(-c2ccc(N3C[C@@H](C)O[C@@H](C)C3)cc2)cnc2c(-c3ccc(C#N)c(F)c3)cccc12` [Embodiment 102], 50 to 100 nM. For `COc1c(-c2ccc(N3C[C@@H](C)O[C@@H](C)C3)cc2)cnc2c(-c3ccc(S(C)(=O)=O)cc3Cl)cccc12` [Embodiment 103], the half-inhibitory concentration (IC50) was 50 to 100 nM.

For `COc1c(-c2ccc(N3C[C@@H](C)O[C@@H](C)C3)cc2)cnc2c(-c3ccc(C#N)cc3F)cccc12` [Embodiment 104], the IC50 was not above 50 nM. Then `COc1c(-c2ccc(N3C[C@@H](C)O[C@@H](C)C3)cc2)cnc2c(-c3ccc(C#N)cc3C)cccc12` [Embodiment 105], with not above 50 nM; and `COc1c(-c2ccc(N3C[C@@H](C)O[C@@H](C)C3)cc2)cnc2c(-c3ccc(C(F)(F)F)nc3)cccc12` [Embodiment 106], with 50 to 100 nM; and `COc1c(-c2ccc(N3C[C@@H](C)O[C@@H](C)C3)cc2)cnc2c(-c3cnn(C)c3)cccc12` [Embodiment 108], with 100 to 500 nM.

As for `COc1c(-c2ccc(N3C[C@@H](C)O[C@@H](C)C3)cc2)cnc2c(-c3ccc4c(c3)OCO4)cccc12` [Embodiment 109], the IC50 lay in the range of 50 to 100 nM.

For the molecule `COc1c(-c2ccc(N3C[C@@H](C)O[C@@H](C)C3)cc2)cnc2c(-c3cnc(N(C)C)nc3)cccc12` [Embodiment 110], the IC50 was in the range of 100 to 500 nM. In the case of `COc1c(-c2ccc(N3C[C@@H](C)O[C@@H](C)C3)cc2)cnc2c(-c3ccc(-c4ncc[nH]4)cc3)cccc12` [Embodiment 111] it was 100 to 500 nM; in that of `COc1c(-c2ccc(N3C[C@@H](C)O[C@H](C)C3)cc2)cnc2c(-c3ccc(C#N)cc3)cccc12` [Embodiment 112], not above 50 nM. In the case of `COc1c(-c2ccc(N3C[C@H](C)C[C@H](C)C3)cc2)cnc2c(-c3ccc(C#N)cc3)cccc12` [Embodiment 113], the half-inhibitory concentration (IC50) was not above 50 nM.

As to `COc1c(-c2ccc(N3C[C@@H](C)O[C@@H](C)C3)cc2)cnc2c(-c3nc4ccccc4[nH]3)cccc12` [Embodiment 114, (2S,6R)-4-(4-(8-(1H-benzo[d]imidazol-2-yl)-4-methoxyquinolin-3-yl)phenyl)-2,6-dimethylmorpholine], the IC50 lay in the range of 1000 to 5000 nM.

For `COc1c(-c2ccc(N3C[C@@H](C)O[C@@H](C)C3)cc2)cnc2c(-c3nc(C#N)cs3)cccc12` [Embodiment 115, 2-(3-(4-((2S,6R)-2,6-dimethylmorpholino)phenyl)-4-methoxyquinolin-8-yl)thiazole-4-carbonitrile], the half-maximal inhibitory concentration (IC50) lay within 1000 to 5000 nM. Then `COc1c(-c2ccc(N3C[C@@H](C)O[C@@H](C)C3)cc2)cnc2c(C3CCC(C#N)CC3)cccc12` (stereo partly drawn) [Embodiment 116, 4-(3-(4-((2S,6R)-2,6-dimethylmorpholino)phenyl)-4-methoxyquinolin-8-yl) cyclohexane carbonitrile], with 100 to 500 nM; and `COc1c(-c2ccc(N3C[C@@H](C)O[C@@H](C)C3)nc2)cnc2c(NC(=O)C(C)(C)C)cccc12` [Embodiment 117, N-(3-(6-((2S,6R)-2,6-dimethylmorpholino)pyridin-3-yl)-4-methoxyquinolin-8-yl) pivalamide], with 1000 to 5000 nM; and `C[C@@H]1CN(c2ccc(-c3cnc4c(-c5ccc(C#N)cc5)cccc4c3Cl)cc2)C[C@H](C)O1` [Embodiment 118, 4-(4-chloro-3-(4-((2S,6R)-2,6-dimethylmorpholino)phenyl)quinolin-8-yl)benzonitrile], with 50 to 100 nM. Then `C[C@@H]1CN(c2ccc(-c3cnc4c(-c5ccc(C#N)cc5)cccc4c3N(C)C)cc2)C[C@H](C)O1` [Embodiment 119, 4-(4-(dimethylamino)-3-(4-((2S,6R)-2,6-dimethylmorpholino)phenyl)quinolin-8-yl) benzonitrile], with 50 to 100 nM.

As for `C[C@@H]1CN(c2ccc(-c3cnc4c(-c5ccc(C#N)cc5)cccc4c3S(C)(=O)=O)cc2)C[C@H](C)O1` [Embodiment 120, 4-(3-(4-((2S,6R)-2,6-dimethylmorpholino)phenyl)-4-(methylsulfonyl)quinolin-8-yl) benzonitrile], the IC50 lay in the range of 500 to 1000 nM. Regarding `C[C@@H]1CN(c2ccc(-c3cnc4c(-c5ccc(C#N)cc5)cccc4c3C3CC3)cc2)C[C@H](C)O1` [Embodiment 121, 4-(4-cyclopropyl-3-(4-((2S,6R)-2,6-dimethylmorpholino)phenyl)quinolin-8-yl) benzonitrile], the IC50 was not above 50 nM. Turning to `Cc1c(-c2ccc(N3C[C@@H](C)O[C@@H](C)C3)cc2)cnc2c(-c3ccc(C#N)cc3)cccc12` [Embodiment 122], the IC50 lay within 50 to 100 nM. Then `C[C@@H]1CN(c2ccc(-c3cnc4c(-c5ccc(C#N)cc5)cccc4c3C#N)cc2)C[C@H](C)O1` [Embodiment 124], with 50 to 100 nM. `Cc1cc(C#N)ccc1-c1cccc2c(C3CC3)c(-c3ccc(N4C[C@@H](C)O[C@@H](C)C4)nc3)cnc12` [Embodiment 125]: the IC50 was not above 50 nM. In the case of `C[C@@H]1CN(c2ccc(-c3cnc4c(-c5ccc(C#N)cc5)cccc4c3N3CCC3)cc2)C[C@H](C)O1` [Embodiment 126, 4-(4-(azetidin-1-yl)-3-(4-((2S,6R)-2,6-dimethylmorpholino)phenyl)quinolin-8-yl) benzonitrile] it was 100 to 500 nM.
